What was measured:
ClC-1 exon 7a = test: RT-PCR of ClC-1 exon 7a splicing after antisense morpholino, Mbnl1^ΔE3/ΔE3 mice; assay type: in vivo; conditions: TA muscle, 3 weeks, 20 μg
Description: FIGS. 27A, 27B, 27C, 27D, and 27E show antisense morpholino represses exon 7a inclusion, restores ClC-1 protein expression, and rescues myotonia in Mbnl1^ΔE3/ΔE3 mice. […] Bar=20 μM. […] Mean±s.d.; n=3 per group; **P<0.0001 antisense- versus invert-treated control; ANOVA.
To examine the effects of AON in this model, antisense morpholino or invert control was injected into TA muscle of Mbnl1^ΔE3/ΔE3 mice.
HSA^LR (Mankodi, A., et al. (2000) Science 289:1769-1773) or Mbnl1^ΔE3/ΔE3 mice (Kanadia, R. N., et al. (2003) Science 302:1978-1980) were anesthetized by intraperitoneal injection of 100 mg/kg ketamine, 10 mg/kg xylazine, and 3 mg/kg acepromazine. TA muscle was pretreated by intramuscular injection of bovine hyaluronidase (15 μl, 0.4 U/μl) (Sigma) (McMahon, J. M., et al. (2001) Gene Ther 8:1264-1270). Two hours later, 10 or 20 μg of morpholino in a total volume of 20 μl phosphate buffered saline (PBS) was injected using a 30-gauge needle. TA muscle was then electroporated using electrodes placed parallel to the long axis of the muscle. Electroporation parameters were 100 V/cm, 10 pulses at 1 Hz, and 20 ms duration per pulse. […] For experiments to determine the distribution of injected oligos, the antisense morpholino was labeled with carboxyfluorescein and cryosections of muscle (10 μM) were examined by fluorescence microscopy, with or without fixation in 4% paraformaldehyde. […]

[1] = Tissue uptake and distribution of carboxyfluorescein-labeled antisense morpholino; assay type: in vivo, HSA^LR mice; conditions: for subcellular localization of antisense morpholino: muscle fibers, TA 3 weeks / FDB day 5
Description: Antisense morpholino targeting the 3′ splice junction of ClC-1 exon 7a was injected into foot pad muscle of HSA^LR mice under general anesthesia. Uptake into muscle fibers was enhanced by in vivo electroporation. The morpholino was tagged with fluorescein. 4 days later, individual FDB muscle fibers were isolated. […] As a control, the opposite footpad was injected with morpholino having the inverted sequence. […] The peak current density in HSA^LR mice (center panel) is much lower than in wild-type mice (left panel). However, after morpholino treatment in HSA^LR mice (right panel), the current density is restored to levels that are similar to wild-type mice. […] The antisense morpholino (closed squares) restores chloride current density to normal levels (open circles or triangles).
The morpholino was complementary to the 3′ splice site of ClC-1 pre-mRNA. Muscle fibers are outlined by wheat germ agglutinin (wga) and nuclei are highlighted by DAPI. FIGS. 24D and 24 E show brightfield (D) and fluorescence (E) images of a single FDB fiber showing preferential nuclear localization of the antisense morpholino (post injection day 5). […] Bars=20 μM.
The strategy for suppressing the inclusion of exon 7a is diagrammed in FIG. 23A. The morpholino AONs were complementary to the 3′ or 5′ splice sites of exon 7a in the ClC-1 pre-mRNA (FIG. 23B). To examine tissue uptake, a carboxyfluorescein-labeled morpholino was injected into tibialis anterior (TA) muscle of HSA^LR mice. […] To improve uptake and distribution of AON, voltage pulses were used to electroporate muscle fibers after the AON injection.
HSA^LR (Mankodi, A., et al. (2000) Science 289:1769-1773) or Mbnl1^ΔE3/ΔE3 mice (Kanadia, R. N., et al. (2003) Science 302:1978-1980) were anesthetized by intraperitoneal injection of 100 mg/kg ketamine, 10 mg/kg xylazine, and 3 mg/kg acepromazine. TA muscle was pretreated by intramuscular injection of bovine hyaluronidase (15 μl, 0.4 U/μl) (Sigma) (McMahon, J. M., et al. (2001) Gene Ther 8:1264-1270). Two hours later, 10 or 20 μg of morpholino in a total volume of 20 μl phosphate buffered saline (PBS) was injected using a 30-gauge needle. TA muscle was then electroporated using electrodes placed parallel to the long axis of the muscle. Electroporation parameters were 100 V/cm, 10 pulses at 1 Hz, and 20 ms duration per pulse. Antisense or control morpholino with inverted sequence was injected into TA muscles of opposite limbs. The determination of which TA received antisense morpholino was randomized, and investigators remained blinded to this assignment until EMG analyses were completed. Other analyses were performed without blinding. For experiments to determine the distribution of injected oligos, the antisense morpholino was labeled with carboxyfluorescein and cryosections of muscle (10 μM) were examined by fluorescence microscopy, with or without fixation in 4% paraformaldehyde. Some sections were co-labeled with TRITC-wheat germ agglutinin (Parsons, S. A., et al. (2003) Mol Cell Biol 23:4331-4343) (50 μg/ml in PBS; Sigma) and 4′,6-diamidino-2-phenylindole (DAPI) to highlight the surface membranes and nuclei of muscle fibers.

Substance: antisense 1: morpholino 5′-CCAGGCACGGTCTGCAACAGAGAAG-3′ targeting the 3′ splice site of ClC-1 exon 7a (all phosphorodiamidate morpholino (PMO))
- ClC-1 exon 7a inclusion (ClC-1 exon 7a; listed as antisense morpholino): repressed the inclusion of exon 7a
- ClC-1 exon 7a inclusion (ClC-1 exon 7a; listed as antisense morpholino 1): reduced inclusion of exon 7a
- fibers showing fluorescein uptake ([1]; FDB fibers, 4 days after foot pad injection + electroporation): Greater than 90%
- tissue uptake of antisense morpholino ([1]; TA injection followed by electroporation): throughout the TA muscle
- tissue uptake of antisense morpholino ([1]; TA injection without electroporation): limited to the needle track
- subcellular localization of antisense morpholino ([1]; listed as AON): accumulate preferentially in the nucleus
- subcellular localization of antisense morpholino ([1]; listed as antisense morpholino): localizes preferentially to muscle nuclei

— patent publication US9371527B2, “Compositions and methods related to protein displacement therapy for myotonic distrophy” (University of Rochester, priority 2006, dated 2016)
